Toxic doses and inconclusive results are not listed. No stated cut-off is given here; in the data, active means T/C of 150% or more; inactive means T/C below 125%.
Test system: L1210 leukemia ip in BDF1 mice, survival T/C
Assay: NCI In Vivo Anticancer Drug Screen. Data for tumor model L1210 Leukemia (intraperitoneal) in B6D2F1 (BDF1) mice
Conditions: endpoint: mean survival time, higher = longer survival
Method in brief: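 In this screen, tumor-bearing mice given compound are compared to those given vehicle, and their survival values are reported as a treated-to-control quotient.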

[1] = dose: 100.0 mg/kg/injection, schedule: Q01DX001 (ip), vehicle: saline
[2] = dose: 200.0 mg/kg/injection, schedule: Q01DX001 (ip), vehicle: saline
[3] = dose: 400.0 mg/kg/injection, schedule: Q01DX001 (ip), vehicle: saline
[4] = dose: 100.0 mg/kg/injection, schedule: Q04DX003 (ip), vehicle: Klucel (hydroxypropylcellulose) (HPC)
[5] = dose: 200.0 mg/kg/injection, schedule: Q04DX003 (ip), vehicle: Klucel (hydroxypropylcellulose) (HPC)
[6] = dose: 400.0 mg/kg/injection, schedule: Q04DX003 (ip), vehicle: Klucel (hydroxypropylcellulose) (HPC)
[7] = dose: 100.0 mg/kg/injection, schedule: Q04DX003 (ip), vehicle: saline with Tween-80
[8] = dose: 100.0 mg/kg/injection, schedule: Q01DX001 (ip), vehicle: carboxymethylcellulose (CMC)
[9] = dose: 200.0 mg/kg/injection, schedule: Q01DX001 (ip), vehicle: carboxymethylcellulose (CMC)
[10] = dose: 400.0 mg/kg/injection, schedule: Q01DX001 (ip), vehicle: carboxymethylcellulose (CMC)
[11] = dose: 50.0 mg/kg/injection, schedule: Q01DX001 (ip), vehicle: carboxymethylcellulose (CMC)

Measured: T/C

Cc1c(C#N)sc2ccccc12
inactive: [1] 96 % of control | [2] 96 % of control | [3] 96 % of control

Cc1cc(-c2ccccc2)c(-c2ccccn2)c2ccccc12
inactive: [4] 96 % of control | [5] 91 % of control | [6] 86 % of control

COc1ccc2c(c1)CCC1C2CCC2(C)C1CCC21CCNP(=O)(N(CCCl)CCCl)O1 (stereo not given)
inactive: [4] 101 % of control | [5] 103 % of control | [6] 92 % of control

O=S1(=O)CC(c2ccc(Br)cc2)Nc2ccccc21 (stereo not given)
inactive: [1] 98 % of control | dose: 100.0 mg/kg/injection, schedule: Q04DX003 (ip), vehicle: acetone 97 % of control | [2] 101 % of control | dose: 200.0 mg/kg/injection, schedule: Q04DX003 (ip), vehicle: acetone 100 % of control | [3] 98 % of control | dose: 400.0 mg/kg/injection, schedule: Q04DX003 (ip), vehicle: acetone 100 % of control

CC(C)(C)c1ccc(N)cc1Br
inactive: dose: 12.5 mg/kg/injection, schedule: Q01DX009 (ip), vehicle: saline with Tween-80 95 % of control | dose: 25.0 mg/kg/injection, schedule: Q01DX009 (ip), vehicle: saline with Tween-80 93 % of control | dose: 50.0 mg/kg/injection, schedule: Q01DX009 (ip), vehicle: saline with Tween-80 97 % of control | [7] 92 % of control | dose: 200.0 mg/kg/injection, schedule: Q04DX003 (ip), vehicle: saline with Tween-80 96 % of control

O=C1c2ccccc2-c2cc(Cl)cc(Cl)c21
inactive: [8] 95 % of control | [9] 96 % of control | [10] 102 % of control

CC(C)C(=O)[O][Sn]([CH2]c1ccccc1)([CH2]c1ccccc1)[CH2]c1ccccc1
inactive: [7] 88 % of control

COc1ccc2[nH]c3c(c(=O)c2c1)CCCC3
inactive: [11] 101 % of control | [8] 95 % of control | [9] 100 % of control | [10] 97 % of control

CN(CC(C)(C)C=O)CC(C)(C)C=O
inactive: dose: 100.0 mg/kg/injection, schedule: Q04DX002 (ip), vehicle: saline 112 % of control | dose: 200.0 mg/kg/injection, schedule: Q04DX002 (ip), vehicle: saline 101 % of control | dose: 400.0 mg/kg/injection, schedule: Q04DX002 (ip), vehicle: saline 108 % of control

Cn1c2ccc3c(c2c(=O)c2ccoc21)C=CC(C)(C)O3
inactive: [11] 98 % of control | [8] 98 % of control | [9] 91 % of control | [10] 98 % of control

Reference: PubChem BioAssay AID248 (DTP/NCI, 2004)
